Experimental data published in ChEMBL document CHEMBL4325928, “Structure-Property Basis for Solving Transporter-Mediated Efflux and Pan-Genotypic Inhibition in HCV NS5B Inhibitors” (ACS Med Chem Lett, 2018).

Legend:
[1] = Permeability of the compound at pH 7.4 by PAMPA; format: ADME; conditions: read-out: permeability
[2] = Efflux ratio of permeability from basolateral side to apical side over apical side to basolateral side in human Caco2 cells expressing p-gp at 3 uM incubated for 2 hrs by LC-MS/MS analysis; format: ADME, cell-based; conditions: Caco-2
[3] = Permeability across apical side to basolateral side in human Caco2 cells expressing p-gp at 3 uM incubated for 2 hrs by LC-MS/MS analysis; format: ADME, cell-based; conditions: Caco-2, read-out: permeability
[4] = Permeability across basolateral side to apical side in human Caco2 cells expressing p-gp at 3 uM incubated for 2 hrs by LC-MS/MS analysis; format: ADME, cell-based; conditions: Caco-2, read-out: permeability
[5] = Half life in human liver microsomes; format: ADME, Microsome
[6] = Half life in rat liver microsomes; format: ADME, Microsome
[7] = Drug level in cannulated Sprague-Dawley rat liver at 6 mg/kg, po administered via gastric gavage measured after 5 hrs by LC-MS/MS analysis; format: ADME, organism-based; conditions: read-out: Drug uptake
[8] = Clearance in cannulated Sprague-Dawley rat at 2 mg/kg, iv administered as 10 mins infusion by LC-MS/MS analysis; format: ADME, organism-based; conditions: in vivo
[9] = Half life in cannulated Sprague-Dawley rat at 2 mg/kg, iv administered as 10 mins infusion by LC-MS/MS analysis; format: ADME, organism-based; conditions: in vivo
[10] = Volume of distribution at steady state in cannulated Sprague-Dawley rat at 2 mg/kg, iv administered as 10 mins infusion by LC-MS/MS analysis; format: ADME, organism-based; conditions: in vivo, read-out: Vdss
[11] = Cmax in cannulated Sprague-Dawley rat at 6 mg/kg, po administered via gastric gavage by LC-MS/MS analysis; format: ADME, organism-based; design: dose 6 mg/kg, route oral; conditions: in vivo
[12] = Tmax in cannulated Sprague-Dawley rat at 6 mg/kg, po administered via gastric gavage by LC-MS/MS analysis; format: ADME, organism-based; conditions: in vivo
[13] = AUC in cannulated Sprague-Dawley rat at 6 mg/kg, po administered via gastric gavage by LC-MS/MS analysis; format: ADME, organism-based; conditions: in vivo
[14] = Oral bioavailability in cannulated Sprague-Dawley rat at 6 mg/kg administered via gastric gavage by LC-MS/MS analysis; format: ADME, organism-based; conditions: in vivo
[15] = Stability in human liver microsomes assessed as parent compound remaining; format: ADME, Microsome
[16] = Stability in rat liver microsomes assessed as parent compound remaining; format: ADME, Microsome
[17] = Drug level in cannulated Sprague-Dawley rat liver at 6 mg/kg, po administered via gastric gavage measured after 24 hrs by LC-MS/MS analysis; format: ADME, organism-based; conditions: read-out: Drug uptake
[18] = Drug level in cannulated Sprague-Dawley rat plasma at 6 mg/kg, po administered via gastric gavage measured after 5 hrs by LC-MS/MS analysis; format: ADME, organism-based

SMILES	Papp [1]	efflux ratio at 2 h, 3 µM [2]	Papp A→B at 2 h, 3 µM [3]	Papp B→A at 2 h, 3 µM [4]	other results
CCN(C(=O)OC)c1cc2oc(-c3ccc(F)cc3)c(C(=O)NC)c2cc1-c1ccc(OC)c(C(=O)NC2(c3ncccn3)CC2)c1	66 ×10⁻⁶ cm/s	9.6	2.4 ×10⁻⁶ cm/s	23.2 ×10⁻⁶ cm/s	–
CCN(c1cc2oc(-c3ccc(F)cc3)c(C(=O)NC)c2cc1-c1ccc(OC)c(C(=O)NC2(c3ncccn3)CC2)c1)S(C)(=O)=O	48.7 ×10⁻⁶ cm/s	> 12.4	< 1.5 ×10⁻⁶ cm/s	18.5 ×10⁻⁶ cm/s	half-life [5]: 1.52 h; half-life [6]: > 2 h; concentration at 5 h [7]: 1180 nM; clearance [8]: 60 mL/min/kg; half-life [9]: 1.6 h; Vd [10]: 14 L/kg; Cmax [11]: 223 nM; Tmax [12]: 1.9 h; AUC [13]: 0.74 µM·h; bioavailability [14]: 20%
CNC(=O)c1c(-c2ccc(F)cc2)oc2cc(N(CCO)S(C)(=O)=O)c(-c3cccc(C(=O)NC4(c5ccccn5)CC4)c3)cc12	–	–	–	–	Stability [15]: 99%; Stability [16]: 8.7%
CCN(c1cc2oc(-c3ccc(F)cc3)c(C(=O)NC)c2cc1-c1cc(C)c(OC)c(C(=O)NC2(c3ncccn3)CC2)c1)S(C)(=O)=O	40.9 ×10⁻⁶ cm/s	9.8	3.3 ×10⁻⁶ cm/s	32.2 ×10⁻⁶ cm/s	–
CCN(c1cc2oc(-c3ccc(F)cc3)c(C(=O)NC)c2cc1-c1cc(F)c(F)c(C(=O)NC2(c3ncccn3)CC2)c1)S(C)(=O)=O	73.1 ×10⁻⁶ cm/s	7.8	7.9 ×10⁻⁶ cm/s	62.3 ×10⁻⁶ cm/s	–
CCNc1cc2oc(-c3ccc(F)cc3)c(C(=O)NC)c2cc1-c1ccc(OC)c(C(=O)NC2(c3ncccn3)CC2)c1	72 ×10⁻⁶ cm/s	0.8	23.2 ×10⁻⁶ cm/s	17.6 ×10⁻⁶ cm/s	half-life [5]: 0.6 h; half-life [6]: 0.65 h; concentration at 5 h [7]: 5260 nM; clearance [8]: 11 mL/min/kg; half-life [9]: 4.7 h; Vd [10]: 4 L/kg; Cmax [11]: 776 nM; Tmax [12]: 5.3 h; AUC [13]: 7.8 µM·h; concentration at 24 h [17]: 391 nM; bioavailability [14]: 57%
CNC(=O)c1c(-c2ccc(F)cc2)oc2cc(N(CCO)S(C)(=O)=O)c(-c3cccc(C(=O)NC4(c5ccccc5)CC4)c3)cc12	–	–	–	–	Stability [15]: 63%; Stability [16]: 0.6%
CNC(=O)c1c(-c2ccc(F)cc2)oc2ccc(-c3cccc(C(=O)NC4(c5ccccn5)CC4)c3)cc12	–	–	–	–	Stability [15]: 91%; Stability [16]: 54%
CCN(C(C)=O)c1cc2oc(-c3ccc(F)cc3)c(C(=O)NC)c2cc1-c1ccc(OC)c(C(=O)NC2(c3ncccn3)CC2)c1	46.6 ×10⁻⁶ cm/s	> 20.5	< 1.5 ×10⁻⁶ cm/s	30.8 ×10⁻⁶ cm/s	–
CCN(c1cc2oc(-c3ccc(F)cc3)c(C(=O)NC)c2cc1-c1cc(Cl)c(OC)c(C(=O)NC2(c3ncccn3)CC2)c1)S(C)(=O)=O	82.1 ×10⁻⁶ cm/s	2.2	5.2 ×10⁻⁶ cm/s	11.4 ×10⁻⁶ cm/s	half-life [5]: 0.232 h; half-life [6]: 0.433 h; concentration at 5 h [18]: 277 nM; concentration at 5 h [7]: 7180 nM
CCN(c1cc2oc(-c3ccc(F)cc3)c(C(=O)NC)c2cc1-c1cccc(C(=O)NC2(c3ncccn3)CC2)c1)S(C)(=O)=O	–	> 8.6	< 1.5 ×10⁻⁶ cm/s	13 ×10⁻⁶ cm/s	Stability [15]: 100%; Stability [16]: 91%; half-life [5]: > 2 h; half-life [6]: 0.817 h
CCN(C(=O)C(F)(F)F)c1cc2oc(-c3ccc(F)cc3)c(C(=O)NC)c2cc1-c1ccc(OC)c(C(=O)NC2(c3ncccn3)CC2)c1	83.5 ×10⁻⁶ cm/s	2.7	4.2 ×10⁻⁶ cm/s	11.5 ×10⁻⁶ cm/s	–
CCN(C(=O)N(C)C)c1cc2oc(-c3ccc(F)cc3)c(C(=O)NC)c2cc1-c1ccc(OC)c(C(=O)NC2(c3ncccn3)CC2)c1	57.5 ×10⁻⁶ cm/s	24.1	2 ×10⁻⁶ cm/s	47.9 ×10⁻⁶ cm/s	–
CCN(c1cc2oc(-c3ccc(F)cc3)c(C(=O)NC)c2cc1-c1cc(F)c(OC)c(C(=O)NC2(c3ncccn3)CC2)c1)S(C)(=O)=O	65.9 ×10⁻⁶ cm/s	13.8	2.9 ×10⁻⁶ cm/s	40.6 ×10⁻⁶ cm/s	–
